Results reported in publication PMC9698716, “From Serendipity to Rational Identification of the 5,6,7,8-Tetrahydrobenzo[4,5]thieno[2,3-d]pyrimidin-4(3H)-one Core as a New Chemotype of AKT1 Inhibitors for Acute Myeloid Leukemia” (Pharmaceutics, 2022).

How the values were obtained:
Assay type in all cases: cell-based, human
IMS-M2 [1] = test: CellTiter Blue cell viability assay; details: Homo sapiens, IMS-M2, 48 h; read-out: cellular IC50
Excerpt: (§1) The human AML cell lines, OCI-AML3 (carrying the NPM1 gene mutation A and the DNMT3A^R882C mutation), IMS-M2 (carrying the NPM1 gene mutation A), OCI-AML2 (with the wild-type NPM1 and DNMT3A^R635W mutation), and SKM-1 and MOLM-13 (with the wild-type NPM1) were previously reported. The cell lines were purchased from the Deutsche Sammelung von Mikroorganismen und Zellkulturen (DSMZ) (Braunschweig, Germany) cell bank and maintained according to the vendors’ instructions. Briefly, cultured cells were split every 3 days and maintained in an exponential growth phase. The cell lines were tested for mycoplasma using the Universal Mycoplasma Detection Kit (ATCC). The OCI-AML3 were grown in α-MEM supplemented with 20% fetal bovine serum, 100 U/mL penicillin, and 100 μg/mL streptomycin (P/S), and all other cell lines were cultured in RPMI and supplemented with a 10–20% fetal bovine serum and 100 U/mL penicillin and 100 μg/mL streptomycin. The cells were kept at 37 °C in a 5% CO2 incubator. Prior to screening, the appropriate cell concentration for all cell lines was determined. For the cell lines’ treatments, cells were maintained as follows: OCI-AML3 at 0.25 × 10^6/mL, OCI-AML2 and IMS-M2 at 0.35 × 10^6/mL, and SKM-1 and MOLM-13 at 0.5 × 10^6/mL. The compounds were re-suspended at 10 mM stock in DMSO. Further dilutions were performed in phosphate-buffer-saline (PBS) for pharmacological experiments. The cells were exposed to compounds at different concentrations for the indicated time points and sampled as described below. Briefly, the cells (4 × 10^5/mL) were seeded in 384-well plate and treated for 48 h with various concentrations (0.001 μM to 100 μM) of either one of the compounds, T101, T126, and T159, or NSC348884, as a positive control. Each plate included DMSO at 0.1% as a negative control. The metabolic cell activity was measured by using the CellTiter Blue proliferation agent (Roche) as described in the manufacturer’s procedure. Briefly, CellTiter Blue solution (Resazaurin) was added to each well and the plates were incubated at 37 °C with 5% CO2 for 4 h. During the incubation time, the resazurin is reduced to fluorescent resorufin in metabolically and proliferating living cells. The fluorescence intensity was measured using the automated Tecan plate reader (Tecan Group Ltd., Männedorf, Switzerland) at an excitation/emission wavelength of 531/572 nm. The fluorescence readouts were reported as relative fluorescence units (RFU) and read on a luminescence plate reader (Infinite 200 Pro, Tecan, CA, USA). The dose response curves ([…] (IC50)) were obtained by non-linear regression analysis using the GraphPad Prism 5.0 program. The concentration is shown as a logarithmic function. All the experiments were performed at least in triplicate, with technical repetition. The results are expressed as mean ± standard error of the mean (SEM). For the Colony Forming Unit (CFU) assay, 10 × 10^6 CD34+ human hematopoietic progenitors were received from unique healthy donors, upon signed informed consent, and were cultured in SFEM II (Serum-free medium) and P/S at a density of 1 × 10^6/mL with cytokines that are important for cell division and self-renewal: fms-like tyrosine kinase 3 (FLT3)-ligand, FLT3L (100 ng/mL), Stem Cell Factor, SCF (100 ng/mL) and Trombopoietin, and TPO (50 ng/mL) for 48 h before plating them on a Methocult medium.

MOLM-13 = test: CellTiter Blue cell viability assay; details: Homo sapiens, MOLM-13, 48 h; read-out: cellular IC50
Excerpt: as §1

OCI-AML2 [2] = test: CellTiter Blue cell viability assay; details: Homo sapiens, OCI-AML2, 48 h; read-out: cellular IC50
Excerpt: as §1

OCI-AML3 [3] = test: CellTiter Blue cell viability assay; details: Homo sapiens, OCI-AML-3; OCI-AML3, 48 h; read-out: cellular IC50
Excerpt: as §1

SKM-1 = test: CellTiter Blue cell viability assay; details: Homo sapiens, SKM-1, 48 h; read-out: cellular IC50
Excerpt: as §1

OCI-AML3 [4] = test: Cell growth, viable cell count by trypan blue exclusion; details: OCI-AML3, 5 µM, at 48 and 72 h
OCI-AML2 [5] = test: as above; details: OCI-AML2, 5 µM, at 48 and 72 h
IMS-M2 [6] = test: Apoptosis by flow cytometry (Annexin V/7AAD); details: IMS-M2, 5 µM, 48 h
Experimental: (§2) The cell apoptosis was assessed using Annexin V APC- or FITC-conjugated antibodies and counterstained with Propidium Iodide (PI) or 7AAD for the detection of necrotic cells (Becton Dickinson, Franklin Lakes, NJ, USA), according to the manufacturer’s protocol. The data acquisition and analysis were done with a FACS Canto II flow cytometer and data were acquired and analyzed using Diva software (Becton Dickinson, Franklin Lakes, NJ, USA).

OCI-AML2 [7] = test: Apoptosis by flow cytometry (Annexin V/7AAD); details: OCI-AML2, 5 µM, 48 h
Experimental: as §2

OCI-AML3 [8] = test: Apoptosis by flow cytometry (Annexin V/7AAD); details: OCI-AML3, 5 µM, 48 h
Experimental: as §2

[9] = system: normal donor CD34+ hematopoietic stem/progenitor cells (HSPC); test: Colony forming unit (CFU) assay; details: 14 days
Excerpt: The human AML cell lines, OCI-AML3 (carrying the NPM1 gene mutation A and the DNMT3A^R882C mutation), IMS-M2 (carrying the NPM1 gene mutation A), OCI-AML2 (with the wild-type NPM1 and DNMT3A^R635W mutation), and SKM-1 and MOLM-13 (with the wild-type NPM1) were previously reported. The cell lines were purchased from the Deutsche Sammelung von Mikroorganismen und Zellkulturen (DSMZ) (Braunschweig, Germany) cell bank and maintained according to the vendors’ instructions. Briefly, cultured cells were split every 3 days and maintained in an exponential growth phase. The cell lines were tested for mycoplasma using the Universal Mycoplasma Detection Kit (ATCC). The OCI-AML3 were grown in α-MEM supplemented with 20% fetal bovine serum, 100 U/mL penicillin, and 100 μg/mL streptomycin (P/S), and all other cell lines were cultured in RPMI and supplemented with a 10–20% fetal bovine serum and 100 U/mL penicillin and 100 μg/mL streptomycin. The cells were kept at 37 °C in a 5% CO2 incubator. Prior to screening, the appropriate cell concentration for all cell lines was determined. […] The metabolic cell activity was measured by using the CellTiter Blue proliferation agent (Roche) as described in the manufacturer’s procedure. […] The fluorescence intensity was measured using the automated Tecan plate reader (Tecan Group Ltd., Männedorf, Switzerland) at an excitation/emission wavelength of 531/572 nm. The fluorescence readouts were reported as relative fluorescence units (RFU) and read on a luminescence plate reader (Infinite 200 Pro, Tecan, CA, USA). […] The results are expressed as mean ± standard error of the mean (SEM). […]
For the CFU assay, 500 CD34+ human cells were plated in a MethoCult™ enriched medium (see Table S4) on a 6-well plate (untreated cells versus T126 at 1, 2.5, and 5 µM, each condition in triplicate). The plates were then incubated for 14 days at 37 °C (5% CO2), and the images were captured and the colonies counted by STEMvision™. […]

IC50 (MOLM-13): 9.2 µM | IC50 (OCI-AML2 [2]): 2.4 µM | IC50 (OCI-AML3 [3]): 4.2 µM | IC50 (SKM-1): 6.9 µM | colony forming ability of human CD34+ HSPC ([9]; 1 µM): did not inhibit | colony forming ability of human CD34+ HSPC ([9]; 2.5 µM): did not inhibit | decrease of clonogenic efficiency compared to untreated control ([9]; 5 µM): about 20%
SMILES: O=c1[nH]c(-c2ccc(O)c(O)c2)nc2sc3c(c12)CCCC3 [T126]
IC50 (IMS-M2 [1]): 4.3 µM | cell growth inhibition (OCI-AML3 [4]): significant cell growth inhibition | cell growth inhibition (OCI-AML2 [5]): significant cell growth inhibition | induction of apoptosis (IMS-M2 [6]): significant level of apoptosis | induction of apoptosis (OCI-AML2 [7]): significant level of apoptosis | induction of apoptosis (OCI-AML3 [8]): significant level of apoptosis
